Measured values: PubChem BioAssay (NCI)
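The compound was tested at five concentrations on cells cultured in 96-well plates, with a 48-hour exposure period. The concentration for 50% growth inhibition is given as GI50. The concentration for full growth arrest is given as TGI.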

Columns and labels:
Assay in all cases: inhibition of tumour cell growth, NCI panel, 48 h
SR leukemia = tested on: SR leukemia
COLO 205 colon = tested on: COLO 205 colon
TK-10 renal = tested on: TK-10 renal
UACC-257 melanoma = tested on: UACC-257 melanoma
SK-MEL-2 melanoma = tested on: SK-MEL-2 melanoma
SF-295 CNS = tested on: SF-295 CNS
CAKI-1 renal = tested on: CAKI-1 renal
MCF7 breast = tested on: MCF7 breast
SK-MEL-5 melanoma = tested on: SK-MEL-5 melanoma
HCC-2998 colon = tested on: HCC-2998 colon
MDA-MB-231 breast = tested on: MDA-MB-231 breast
NCI-H23 lung = tested on: NCI-H23 lung
MDA-MB-435 = tested on: MDA-MB-435
EKVX NSCLC = tested on: EKVX NSCLC
NCI-H460 lung = tested on: NCI-H460 lung
NCI-H226 lung = tested on: NCI-H226 lung
M14 melanoma = tested on: M14 melanoma
OVCAR-4 ovarian = tested on: OVCAR-4 ovarian
HOP-92 NSCLC = tested on: HOP-92 NSCLC
MOLT-4 leukemia = tested on: MOLT-4 leukemia
DU-145 prostate = tested on: DU-145 prostate
OVCAR-3 ovarian = tested on: OVCAR-3 ovarian
HS 578T breast = tested on: HS 578T breast
SN12C renal = tested on: SN12C renal
HT29 colon = tested on: HT29 colon
RXF 393 renal = tested on: RXF 393 renal
OVCAR-5 ovarian = tested on: OVCAR-5 ovarian
SF-268 CNS = tested on: SF-268 CNS
BT-549 breast = tested on: BT-549 breast

## CC(C)c1ccc(COCc2cc(CN3CCCC3)c(O)c3ncccc23)cc1
SR leukemia
  GI50: 0.323 µM
  TGI: 2.08 µM
COLO 205 colon
  GI50: 3.34 µM
  TGI: 11.9 µM
TK-10 renal
  GI50: 0.409 µM
  TGI: 12.6 µM
UACC-257 melanoma
  GI50: 0.783 µM
  TGI: 3.93 µM
SK-MEL-2 melanoma
  GI50: 1.61 µM
  TGI: 4.53 µM
SF-295 CNS
  GI50: 1.18 µM
  TGI: 6.26 µM
CAKI-1 renal
  GI50: 0.146 µM
  TGI: 4.44 µM
MCF7 breast
  GI50: 0.365 µM
  TGI: 1.52 µM
SK-MEL-5 melanoma
  GI50: 0.302 µM
  TGI: 1.15 µM
HCC-2998 colon
  GI50: 1.58 µM
  TGI: 6.03 µM
MDA-MB-231 breast
  GI50: 0.774 µM
  TGI: 3.27 µM
NCI-H23 lung
  GI50: 0.708 µM
  TGI: 3.13 µM
MDA-MB-435
  GI50: 0.855 µM
  TGI: 11.2 µM
EKVX NSCLC
  GI50: 0.746 µM
  TGI: 11.9 µM
NCI-H460 lung
  GI50: 0.395 µM
  TGI: 1.47 µM
NCI-H226 lung
  GI50: 0.912 µM
  TGI: 3.19 µM
M14 melanoma
  GI50: 0.351 µM
  TGI: 1.99 µM
OVCAR-4 ovarian
  GI50: 0.32 µM
  TGI: 1.41 µM
HOP-92 NSCLC
  GI50: 1.67 µM
  TGI: 11.7 µM
MOLT-4 leukemia
  GI50: 0.378 µM
  TGI: 2.13 µM
DU-145 prostate
  GI50: 0.77 µM
  TGI: 9.72 µM
OVCAR-3 ovarian
  GI50: 0.403 µM
  TGI: 1.87 µM
HS 578T breast
  GI50: 1.72 µM
  TGI: 7.54 µM
SN12C renal
  GI50: 0.825 µM
  TGI: 4.6 µM
HT29 colon
  GI50: 2.64 µM
  TGI: 6.83 µM
RXF 393 renal
  GI50: 0.878 µM
  TGI: 3.45 µM
OVCAR-5 ovarian
  GI50: 1.43 µM
  TGI: 13.5 µM
SF-268 CNS
  GI50: 0.673 µM
  TGI: 7.98 µM
BT-549 breast
  GI50: 1.45 µM
  TGI: 8.57 µM
